Patent publication US20260250257A1, “ANTIBACTERIAL AND SYNERGISTIC ACTIVE COMPOUND AND USE THEREOF” (EAST CHINA UNIVERSITY OF SCIENCE AND TECHNOLOGY, priority 2023, published 2026)
≈ marks a conversion by molar mass, not a printed value.

Tests used:
Assay type in all cases: cell-based
[1] = tested on: ATCC13883 strain (Klebsiella pneumoniae); test: Checkerboard antibacterial synergistic activity test with polymyxin E (FIC); parameters: key: FIC≤0.5 synergy; 0.5–1 additive; 1–2 indifferent; ≥2 antagonism; conditions: combined with polymyxin E
Method: (§1) Polymyxin E was diluted in sterile MH broth medium to concentrations of 16, 8, 4, 2, 1, 0.5, 0.25, 0.125, 0.0625, 0.031, and 0.015 μg/ml, and the drug to be tested was diluted to concentrations of 256, 128, 64, 32, 16, 8, and 4 μg/ml. According to the checkerboard method, combinations of the drug to be tested and polymyxin at different concentrations in ascending order were placed into a 96-well plate, and corresponding blank control groups were set up. 50 μl of the drug solution was added to each well, then 100 μl of bacterial liquid was added, and incubated in a 37° C. incubator for 16 hours. […] Calculation and judgment criteria:
(§2) Fractional Inhibitory Concentration (FIC) is calculated as follows: […]
(§3) Judgment criteria: FIC≤0.5: synergistic effect; 0.5<FIC<1: additive effect; 1<FIC<2: indifferent effect; FIC≥2: antagonistic effect.
(§4) In the table: ATCC19606 strain is Acinetobacter baumannii, ATCC25922 strain is Escherichia coli, ATCC13883 strain is Klebsiella pneumoniae, ATCC9027 strain is Pseudomonas aeruginosa. All four strains were purchased from ATCC.

[2] = tested on: ATCC19606 strain (Acinetobacter baumannii); test: as above; parameters: key: FIC≤0.5 synergy; 0.5–1 additive; 1–2 indifferent; ≥2 antagonism; conditions: combined with polymyxin E
Method: as §1, §2, §3, §4

[3] = tested on: ATCC25922 strain (Escherichia coli); test: as above; parameters: key: FIC≤0.5 synergy; 0.5–1 additive; 1–2 indifferent; ≥2 antagonism; conditions: combined with polymyxin E
Method: as §1, §2, §3, §4

[4] = tested on: ATCC9027 strain (Pseudomonas aeruginosa); test: as above; parameters: key: FIC≤0.5 synergy; 0.5–1 additive; 1–2 indifferent; ≥2 antagonism; conditions: combined with polymyxin E
Method: as §1, §2, §3, §4

[5] = tested on: ATCC13883 strain (Klebsiella pneumoniae); test: Broth microdilution, antibacterial activity of the compound used alone; conditions: for MIC: read-out: Antibacterial activity of the compound of Formula I, ATCC13883
Excerpt: (§5) The broth microdilution method was used to test the antibacterial effects of the compounds of the present invention against various Gram-negative bacterial strains when used alone.

[6] = tested on: ATCC19606 strain (Acinetobacter baumannii); test: as above; conditions: for MIC: read-out: Antibacterial activity of the compound of Formula I, ATCC19606
Excerpt: as §5

[7] = tested on: ATCC25922 strain (Escherichia coli); test: as above; conditions: for MIC: read-out: Antibacterial activity of the compound of Formula I, ATCC25922
Excerpt: as §5

[8] = tested on: ATCC9027 strain (Pseudomonas aeruginosa); test: as above; conditions: for MIC: read-out: Antibacterial activity of the compound of Formula I, ATCC9027
Excerpt: as §5

| Structure (SMILES) | Synergistic activity (FIC value) ATCC13883 [1] | Synergistic activity (FIC value) ATCC19606 [2] | Synergistic activity (FIC value) ATCC25922 [3] | Synergistic activity (FIC value) ATCC9027 [4] | Antibacterial activity of the compound of Formula I, ATCC13883 [5] | Antibacterial activity of the compound of Formula I, ATCC19606 [6] | Antibacterial activity of the compound of Formula I, ATCC25922 [7] | Antibacterial activity of the compound of Formula I, ATCC9027 [8] | MIC [5] | MIC [6] | MIC [7] | MIC [8] |
| --- | --- | --- | --- | --- | --- | --- | --- | --- | --- | --- | --- | --- |
| NC(N)=Nc1nc(-c2cc(I)c(O)c(I)c2)co1 [Compound I-35] | 0.19 | 0.13 | 0.52 | 1.25 | 256 µg/mL | 256 µg/mL | 256 µg/mL | 256 µg/mL |  |  |  |  |
| NC(N)=Nc1nc(-c2ccccc2Cl)c[nH]1 [Compound I-36] | 0.31 | 0.25 | 0.56 | 0.5 | 128 µg/mL | 256 µg/mL | 128 µg/mL | 64 µg/mL |  |  |  |  |
| NC(N)=Nc1nc(-c2cccc(Cl)c2)cs1 [Compound I-37] | 1.25 | 0.25 | 1.25 | 0.52 | 256 µg/mL | 256 µg/mL | 256 µg/mL | 256 µg/mL |  |  |  |  |
| NC(N)=Nc1nc(-c2ccc(Cl)cc2)cs1 [Compound I-38] | 0.25 | 0.28 | 0.5 | 0.63 | 256 µg/mL | 256 µg/mL | 256 µg/mL | 256 µg/mL |  |  |  |  |
| NC(N)=Nc1nc(-c2cc(Cl)cc(Cl)c2)cs1 [Compound I-39] | 1.25 | 0.75 | 1.25 | 1.25 | 128 µg/mL | 256 µg/mL | 128 µg/mL | 64 µg/mL |  |  |  |  |
| NC(N)=Nc1nc(-c2cc(Cl)c(O)c(Cl)c2)co1 [Compound I-40] | 0.19 | 0.13 | 0.52 | 0.51 | 256 µg/mL | 256 µg/mL | 256 µg/mL | 256 µg/mL |  |  |  |  |
| NC(N)=Nc1nc(-c2ccccc2C(F)(F)F)c[se]1 [Compound I-41] | 0.38 | 0.5 | 0.38 | 0.63 | 256 µg/mL | 256 µg/mL | 256 µg/mL | 256 µg/mL |  |  |  |  |
| NC(N)=Nc1nc(-c2cccc(C(F)(F)F)c2)c[nH]1 [Compound I-42] | 1.25 | 1.25 | 0.53 | 1.25 | 256 µg/mL | 256 µg/mL | 256 µg/mL | 256 µg/mL |  |  |  |  |
| NC(N)=Nc1nc(-c2ccc(C(F)(F)F)cc2)cs1 [Compound I-43] | 1.25 | 1.25 | 0.5 | 0.63 | 256 µg/mL | 256 µg/mL | 256 µg/mL | 256 µg/mL |  |  |  |  |
| NC(N)=Nc1nc(-c2cc(C(F)(F)F)cc(C(F)(F)F)c2)cs1 [Compound I-44] | 0.25 | 0.14 | 0.31 | 0.52 |  |  |  |  | 256 µg/mL (≈ 723 µM) | 256 µg/mL (≈ 723 µM) | 256 µg/mL (≈ 723 µM) | 256 µg/mL (≈ 723 µM) |
| NC(N)=Nc1nc(-c2cc(C(F)(F)F)c(O)c(C(F)(F)F)c2)co1 [Compound I-45] | 0.19 | 0.13 | 0.52 | 1.25 | 256 µg/mL | 256 µg/mL | 256 µg/mL | 256 µg/mL |  |  |  |  |
| CC(C)=CCOc1ccccc1-c1csc(N=C(N)N)n1 [Compound I-46] | 0.25 | 0.31 | 0.27 | 0.52 | 256 µg/mL | 256 µg/mL | 256 µg/mL | 256 µg/mL |  |  |  |  |
| CC(C)=CCOc1cccc(-c2csc(N=C(N)N)n2)c1 [Compound I-47] | 1.25 | 0.75 | 0.5 | 1.25 |  |  |  |  | 256 µg/mL (≈ 847 µM) | 256 µg/mL (≈ 847 µM) | 256 µg/mL (≈ 847 µM) | 256 µg/mL (≈ 847 µM) |
| CC(C)=CCOc1ccc(-c2csc(N=C(N)N)n2)cc1 [Compound I-48] | 0.51 | 0.16 | 0.51 | 0.75 | 256 µg/mL | 256 µg/mL | 256 µg/mL | 256 µg/mL |  |  |  |  |
| CC(C)=CCOc1cc(OCC=C(C)C)cc(-c2nc(N=C(N)N)[nH]c2C)c1 [Compound I-49] | 0.53 | 0.25 | 1.25 | 0.53 | 256 µg/mL | 256 µg/mL | 256 µg/mL | 256 µg/mL |  |  |  |  |
| CC(C)=CCOc1cc(-c2nc(N=C(N)N)oc2Cl)cc(OCC=C(C)C)c1O [Compound I-50] | 0.16 | 0.13 | 0.26 | 0.31 | 256 µg/mL | 256 µg/mL | 256 µg/mL | 256 µg/mL |  |  |  |  |
| Cc1cc(C)c(-c2csc(N=C(N)N)n2)c(C)c1 [Compound I-51] | 1.25 | 1.25 | 0.5 | 1.25 |  |  |  |  | 256 µg/mL (≈ 983 µM) | 256 µg/mL (≈ 983 µM) | 256 µg/mL (≈ 983 µM) | 256 µg/mL (≈ 983 µM) |
| NC(N)=Nc1nc(-c2c(Cl)cc(Cl)cc2Cl)c[nH]1 [Compound I-52] | 0.25 | 0.3 | 0.5 | 0.63 | 256 µg/mL | 256 µg/mL | 256 µg/mL | 256 µg/mL |  |  |  |  |
